Results as given in US10683297B2 (Sunshine Lake Pharma Co., Ltd., priority 2017, dated 2020).

Columns and labels:
[1] = target: T1, JAK1 (h) (Homo sapiens, UniProt P23458); assay: JAK1 (h) kinase assay; type: biochemical; details: [γ-33P-ATP] 10 μM or KM values; 40 minutes at room temperature
T1 construct: purchased Millipore UK Ltd (assays performed there as a service)
Method in brief: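 Radiometric filter-binding assay: human JAK1 incubated 40 min at room temperature in 20 mM Tris/HCl pH 7.5, 0.2 mM EDTA, 500 μM peptide substrate, 10 mM Mg acetate, with [γ-33P]ATP at 10 μM or KM. Reaction stopped with phosphoric acid; P30 filtermat scintillation counting.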

[2] = target: T2, Aurora-A (h) (Homo sapiens, UniProt O14965); assay: Aurora-A (h) kinase assay; type: biochemical; details: [γ-33P-ATP] 10 μM or KM values; 40 minutes at room temperature
T2 construct: purchased Millipore UK Ltd (assays performed there as a service)
T2 sequence (O14965 1-403): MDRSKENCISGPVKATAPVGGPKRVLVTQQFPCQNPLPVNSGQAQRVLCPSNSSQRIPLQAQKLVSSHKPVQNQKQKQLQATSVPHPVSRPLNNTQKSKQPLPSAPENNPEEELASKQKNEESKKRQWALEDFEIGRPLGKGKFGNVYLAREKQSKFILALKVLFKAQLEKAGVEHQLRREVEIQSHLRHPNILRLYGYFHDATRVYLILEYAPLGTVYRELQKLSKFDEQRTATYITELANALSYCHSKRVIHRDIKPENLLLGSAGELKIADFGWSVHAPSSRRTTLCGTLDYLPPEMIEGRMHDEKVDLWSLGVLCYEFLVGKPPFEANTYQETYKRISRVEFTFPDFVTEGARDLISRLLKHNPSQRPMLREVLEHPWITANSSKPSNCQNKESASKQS
Description: (§1) The above assay procedure can be used to determine the IC50 for inhibition and/or the inhibition constant, Ki. […] The IC50 value is estimated by preparing a 10 point curve using a ½ log dilution series (for example, a typical curve may be prepared using the following compound concentrations: 3 μM, 1 μM, 0.3 μM, 0.1 μM, 0.03 μM, 0.01 μM, 0.003 μM, 0.001 μM, 0.0003 μM and 0 μM).
Aurora-A (h) is incubated with 8 mM MOPS pH 7.0, 0.2 mM EDTA, 200 μM LRRASLG (Kemptide), 10 mM MgAcetate and [γ-^33P-ATP] […] The reaction is initiated by the addition of the MgATP mix. After incubation for 40 minutes at room temperature, the reaction is stopped by the addition of 3% phosphoric acid solution. 10 μL of the reaction is then spotted onto a P30 filtermat and washed three times for 5 minutes in 75 mM phosphoric acid and once in methanol prior to drying and scintillation counting.
(§2) The kinase assays described herein were performed at Millipore UK Ltd, Dundee Technology Park, Dundee DD2 1SW, UK.

[3] = Pharmacokinetics after intravenous and oral administration in rats; type: in vivo; details: for Clearance (CL) after iv dosing / AUC(0-t) / half-life / Vd: dose 1 mg/kg (Ex. 9: 0.6, Ex. 18: 0.5, Ex. 50: 0.96 mg/kg), iv dosing; for AUC(0-t) / half-life / Vd / bioavailability: rat, plasma; for Vd: read-out: Vss; for bioavailability: oral (generally 5 or 10 mg/kg) versus iv dosing, read-out: F (oral bioavailability)
Method in brief: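 Rats dosed i.v. (about 0.5, 0.6, 1 or 2 mg/kg) or p.o. (5 or 10 mg/kg) as solution, suspension or capsule. Plasma sampled over 24 h and quantified by LC/MS/MS in MRM mode with ESI.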

[4] = target: T3, Aurora-B (h) (Homo sapiens, UniProt Q96GD4); assay: Aurora-B (h) kinase assay; type: biochemical; details: [γ-33P-ATP] 10 μM or KM values; 40 minutes at room temperature
T3 construct: purchased Millipore UK Ltd (assays performed there as a service)
T3 sequence (Q96GD4 whole entry): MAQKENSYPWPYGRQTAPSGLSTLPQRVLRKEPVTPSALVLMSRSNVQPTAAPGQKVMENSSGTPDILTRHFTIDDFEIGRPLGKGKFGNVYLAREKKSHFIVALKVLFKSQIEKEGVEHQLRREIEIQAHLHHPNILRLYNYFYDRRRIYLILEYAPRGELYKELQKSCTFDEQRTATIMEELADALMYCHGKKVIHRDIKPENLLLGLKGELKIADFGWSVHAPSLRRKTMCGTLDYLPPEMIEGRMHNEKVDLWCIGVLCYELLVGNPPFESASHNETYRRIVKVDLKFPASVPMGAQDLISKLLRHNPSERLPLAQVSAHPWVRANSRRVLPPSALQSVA
Description: as §1
Aurora-B (h) is incubated with 8 mM MOPS pH 7.0, 0.2 mM EDTA, 30 μM […], 10 mM MgAcetate and [γ-^33PATP] […] The reaction is initiated by the addition of the MgATP mix. After incubation for 40 minutes at room temperature, the reaction is stopped by the addition of a 3% phosphoric acid solution. 10 μL of the reaction is then spotted onto a P30 filtermat and washed three times for 5 minutes in 75 mM phosphoric acid and once in methanol prior to drying and scintillation counting.
as §2

T1 sequence (P23458 whole entry): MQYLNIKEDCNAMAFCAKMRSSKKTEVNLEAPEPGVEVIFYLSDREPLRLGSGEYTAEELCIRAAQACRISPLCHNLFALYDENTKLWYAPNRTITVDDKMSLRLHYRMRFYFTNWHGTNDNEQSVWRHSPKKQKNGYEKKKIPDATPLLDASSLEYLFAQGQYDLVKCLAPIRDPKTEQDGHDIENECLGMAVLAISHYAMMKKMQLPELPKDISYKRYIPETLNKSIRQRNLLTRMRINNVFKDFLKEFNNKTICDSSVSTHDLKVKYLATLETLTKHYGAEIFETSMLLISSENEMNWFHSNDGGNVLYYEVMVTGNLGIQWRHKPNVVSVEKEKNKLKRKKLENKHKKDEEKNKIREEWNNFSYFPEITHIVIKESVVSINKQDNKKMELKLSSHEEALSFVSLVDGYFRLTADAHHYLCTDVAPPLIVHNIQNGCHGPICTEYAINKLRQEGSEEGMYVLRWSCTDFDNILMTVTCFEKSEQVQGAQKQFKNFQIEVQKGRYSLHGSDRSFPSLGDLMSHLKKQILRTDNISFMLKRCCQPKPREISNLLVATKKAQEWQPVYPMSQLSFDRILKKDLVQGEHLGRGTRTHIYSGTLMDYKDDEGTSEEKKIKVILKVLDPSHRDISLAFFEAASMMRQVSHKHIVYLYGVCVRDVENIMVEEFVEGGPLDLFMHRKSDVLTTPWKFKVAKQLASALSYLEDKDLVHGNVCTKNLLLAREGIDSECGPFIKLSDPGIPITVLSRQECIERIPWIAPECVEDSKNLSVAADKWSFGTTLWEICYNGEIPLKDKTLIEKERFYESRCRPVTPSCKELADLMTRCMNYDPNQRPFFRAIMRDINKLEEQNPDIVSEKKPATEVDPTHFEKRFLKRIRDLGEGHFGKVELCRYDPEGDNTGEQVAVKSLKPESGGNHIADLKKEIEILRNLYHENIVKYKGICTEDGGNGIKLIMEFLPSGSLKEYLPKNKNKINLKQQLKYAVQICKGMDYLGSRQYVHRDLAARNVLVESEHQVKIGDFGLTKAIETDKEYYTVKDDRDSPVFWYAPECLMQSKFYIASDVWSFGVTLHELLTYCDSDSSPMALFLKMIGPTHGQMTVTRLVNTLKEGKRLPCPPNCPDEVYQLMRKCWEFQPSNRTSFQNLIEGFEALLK

Structure (SMILES)	IC50 [1] [nM]	IC50 [2] [nM]	Clearance (CL) after iv dosing [3] [mL/min/kg]	AUC(0-t) [3] [ng·h/mL]	half-life [3] [h]	Vd [3] [L/kg]	bioavailability [3] [%]	IC50 [4] [nM]
CC(C)(O)c1nnc2cc(Nc3ncc(Cl)c(NC4CCN(c5ccc(C#N)cn5)CC4)n3)ccn12 [Example 40]	< 0.3	119						
CCC1CN(c2ccc(C#N)cn2)CCC1Nc1nc(Nc2ccn3c(C)cnc3c2)ncc1Cl (stereo not shown) [Example 2, 6-(4-((5-chloro-2-((3-methylimidazo[1,2-a]pyridin-7-yl)amino)pyrimidin-4-yl)amino)-3-ethylpiperidin-1-yl)nicotinonitrile]	1		8.5	1960	1.1	0.73	50.2	46
Cc1nc2cc(Nc3ncc(Cl)c(NC4CCN(c5ccc(C#N)cn5)CC4)n3)ccc2n1C [Example 48, 6-(4-((5-chloro-2-((1,2-dimethyl-1H-benzo[d]imidazol-5-yl)amino)pyrimidin-4-yl)amino)piperidin-1-yl)nicotinonitrile]	< 0.3	315	11.2	1510	1.08	0.89	79.4	
CC(C)(O)Cc1nnc2cc(Nc3ncc(Cl)c(NC4CCN(c5ccc(C#N)nn5)CC4)n3)ccn12 [Example 75, 6-(4-((5-chloro-2-((3-(2-hydroxy-2-methylpropyl)-[1,2,4]triazolo[4,3-a]pyridin-7-yl)amino)pyrimidin-4-yl)amino)piperidin-1-yl)pyridazine-3-carbonitrile]	1							184
CC(C)(O)Cc1nnc2cc(Nc3ncc(Cl)c(NC4CCN(c5ccc(C#N)cn5)CC4)n3)ccn12 [Example 74, 6-(4-((5-chloro-2-((3-(2-hydroxy-2-methylpropyl)-[1,2,4]triazolo[4,3-a]pyridin-7-yl)amino)pyrimidin-4-yl)amino)piperidin-1-yl)nicotinonitrile]	0.7							46
N#Cc1ccc(N2CCC(Nc3nc(Nc4ccn5c(C(F)F)nnc5c4)ncc3Cl)CC2)nc1 [Example 30, 6-(4-((5-chloro-2-((3-(difluoromethyl)-[1,2,4]triazolo[4,3-a]pyridin-7-yl)amino)pyrimidin-4-yl)amino)piperidin-1-yl)nicotinonitrile]	0.9	630	2.83	5130	2.61	0.61	116	
Cn1nnc2cc(Nc3ncc(Cl)c(NC4CCN(c5ccc(C#N)nn5)CC4)n3)ccc21 [Example 47, 6-(4-((5-chloro-2-((l-methyl-1H-benzo[d][1,2,3]triazol-5-yl)amino)pyrimidin-4-yl)amino)piperidin-1-yl)pyridazine-3-carbonitrile]	< 0.3	116	11.7	1490	0.78	0.87	144	
Cn1cnc2cc(Nc3ncc(Cl)c(NC4CCN(c5ccc(C#N)cn5)CC4)n3)ccc21 [Example 46, 6-(4-((5-chloro-2-((1-methyl-1H-benzo[d]imidazol-5-yl)amino)pyrimidin-4-yl)amino)piperidin-1-yl)nicotinonitrile]	< 0.3	187	4.83	3400	1.01	0.42	126	
CC(C)(O)c1cn2ccc(Nc3ncc(Cl)c(NC4CCN(c5ccc(C#N)cn5)CC4)n3)cc2n1 [Example 70, 6-(4-((5-chloro-2-((2-(2-hydroxypropan-2-yl)imidazo[1,2-a]pyridin-7-yl)amino)pyrimidin-4-yl)amino)piperidin-1-yl)nicotinonitrile]	0.5		19.3	860	0.94	1.39	23.5	125
CC(O)Cc1nc2cc(Nc3ncc(Cl)c(NC4CCN(c5ccc(C#N)nn5)CC4)n3)ccn2n1 (stereo not shown) [Example 56, 6-(4-((5-chloro-2-((2-(2-hydroxypropyl)-[1,2,4]triazolo[1,5-a]pyridin-7-yl)amino)pyrimidin-4-yl)amino)piperidin-1-yl)pyridazine-3-carbonitrile]	0.5	> 300						
CC(C)(O)c1cnc2cc(Nc3ncc(Cl)c(NC4CCN(c5ccc(C#N)cn5)CC4)n3)ccn12 [Example 68, 6-(4-((5-chloro-2-((3-(2-hydroxypropan-2-yl)imidazo[1,2-a]pyridin-7-yl)amino)pyrimidin-4-yl)amino)piperidin-1-yl)nicotinonitrile]	0.3		15	1090	1.34	1.51		223
CCC1CN(c2ccc(C#N)nn2)CCC1Nc1nc(Nc2ccn3c(C)cnc3c2)ncc1Cl (stereo not shown) [Example 3, 6-(4-((5-chloro-2-((3-methylimidazo[1,2-a]pyridin-7-yl)amino)pyrimidin-4-yl)amino)-3-ethylpiperidin-1-yl)pyridazine-3-carbonitrile]	0.6							102
CC(C)(O)Cc1cn2cc(Nc3ncc(Cl)c(NC4CCN(c5ccc(C#N)cn5)CC4)n3)ccc2n1 [Example 73, 6-(4-((5-chloro-2-((2-(2-hydroxy-2-methylpropyl)imidazo[1,2-a]pyridin-6-yl)amino)pyrimidin-4-yl)amino)piperidin-1-yl)nicotinonitrile]	1		36.5	464	0.7	1.8	56.4	13
CC(C)(O)c1nc2cc(Nc3ncc(Cl)c(NC4CCN(c5ccc(C#N)cn5)CC4)n3)ccn2n1 [Example 39, 6-(4-((5-chloro-2-((2-(2-hydroxypropan-2-yl)-[1,2,4]triazolo[1,5-a]pyridin-7-yl)amino)pyrimidin-4-yl)amino)piperidin-1-yl)nicotinonitrile]	0.6	708	5.83	2830	4.65	1.25	52	
Cc1nc2cc(Nc3ncc(Cl)c(NC4CCN(c5ccc(C#N)cn5)CC4)n3)ccn2n1 [Example 32, 6-(4-((5-chloro-2-((2-methyl-[1,2,4]triazolo[1,5-a]pyridin-7-yl)amino)pyrimidin-4-yl)amino)piperidin-1-yl)nicotinonitrile]	0.5	662	14.2	2020	1.53	0.96	180	
CC(C)(O)Cc1nc2ccc(Nc3ncc(Cl)c(NC4CCN(c5ccc(C#N)nn5)CC4)n3)cn2n1 [Example 79, 6-(4-((5-chloro-2-((2-(2-hydroxy-2-methylpropyl)-[1,2,4]triazolo[1,5-a]pyridin-6-yl)amino)pyrimidin-4-yl)amino)piperidin-1-yl)pyridazine-3-carbonitrile]	1		272	1020	0.762	1.23	42.1	
